# Experimental data from US4665076A, “Pharmacologically active piperidine derivatives and their use” (Rhone-Poulenc Sante, priority 1984, dated 1987).
# Tested on: aconitine-induced ventricular arrhythmias
# Assay: aconitine test in rats (antiarrhythmic activity)
# Type: in vivo, male rats
# Settings: Rattus norvegicus, iv, read-out: ED50 (dose which increases by 50% the perfusion time of aconitine relative to control animals)
# Description: The principle of the technique rests on the time required for inducing ventricular arrhythmias with aconitine slowly perfused in rats. An antiarrhythmic substance delays the appearance of the arrhythmia, and this delay is proportional to the activity of the substance.
# Groups of 5 male rats are used. Individual anaesthetisation is carried out (10% urethane: 1 g/kg/ip) to permit catheterisation of the vein of the penis. The electrocardiogram is recorded. At time T=O, the substance studied is injected as an aqueous solution, in the proportion of 2.5 ml of solution per kg, in the course of 30 seconds. At time T=60 seconds, or 30 seconds after completing the injection, aconitine is perfused at the rate of 20 μg per minute until […] extrasystoles appear. The perfusion time of the aconitine is noted. The results are expressed as an ED50, i.e. the dose of the product under test in mg/kg which increases by 50% the perfusion time of aconitine relative to control animals.
row,SMILES,ED50 [mg/kg]
1,"NC(CCC1CCNCC1)c1ccc2ccccc2c1 (stereo not drawn) [Example 9, 1-(2-Naphthyl)-3-(4-piperidyl)-1-propanamine]",< 0.3

# Same assay, conditions: {}
row,SMILES,ED50 (dose which increases by 50% the perfusion time of aconitine relative to control animals) [mg/kg i.v.]
1,"COc1cc2ccnc(C(O)CCC3CCNCC3)c2cc1OC (stereo not drawn) [Example 7, 1-(6,7-Dimethoxy-1-isoquinolyl)-3-(4-piperidyl)-1-propanol]",2.5
2,"OC(CCC1CCNCC1)c1cccc2ccccc12 (stereo not drawn) [Example 5, 1-(1-Naphthyl)-3-(4-piperidyl)-1-propanol]",1.42
3,"CC(C)(C)c1nc(C(O)CCC2CCNCC2)c2ccccc2n1 (stereo not drawn) [Example 8, 1[2-(1,1-Dimethylethyl)-4-quinazolinyl]-3-(4-piperidyl)-1-propanol]",1
4,"O=C(CCC1CCNCC1)c1ccc2ccccc2c1 [Example 1, 1-(2-Naphthyl)-3-(4-piperidyl)-1-propanone]",4
5,"OC(CCC1CCNCC1)c1nccc2ccccc12 (stereo not drawn) [Example 6, 1-(1-Isoquinolyl)-3-(4-piperidyl)-1-propanol]",2.7
6,"O=C(CCC1CCNCC1)c1cccc2ccccc12 [Example 2, 1-(1-Naphthyl)-3-(4-piperidyl)-1-propanone]",3.8
7,"COc1cc2ccnc(C(=O)CCC3CCNCC3)c2cc1OC [Example 3, 1-(6,7-Dimethoxy-1-isoquinolyl)-3-(4-piperidyl)-1-propanone]",2.1
8,"C=C[C@H]1C[N@@]2CC[C@H]1C[C@@H]2[C@@H](O)c1ccnc2ccc(OC)cc12 [Quinidine, reference compound]",7.5
